Where a name gives a salt, the structure may show the parent alone.

Series [1] concerns the target T1, human GPR10 (Homo sapiens (Human), UniProt P49683). The series is described as follows: Antagonistic activity on PrRP-induced intracellular calcium mobilization in human GPR10-expressing HEK293 cells. Format: cell-based. The note with it: PrRP 1 nM-induced intracellular calcium mobilization, Fluo-8. How it is done: Pharmacological Test 2 Antagonistic Activity on GPR10 Using Human GPR10-Expressing HEK293 Cells.
Antagonistic activity of test compounds on PrRP-induced intracellular calcium mobilization was evaluated using GPR10-expressing HEK293 cells.
HEK293 cells expressing human GPR10 were maintained in Dulbecco's Modified Eagles' medium supplemented with 10% fetal bovine serum, 1% penicillin-streptomycin and 20 mM HEPES at 37° C. in a 5% CO2 incubator. GPR10-expressing HEK293 cells were placed in poly-D-lysine coated 96-well culture plates and cultured for 18-24 hr before the test at a density of 3×10^4 cells/well. […] The cells were incubated with test compounds for 15 min at room temperature, and then PrRP (the final concentration, 1 nM) was added into the medium. The changes in intracellular calcium-dependent fluorescence were monitored using a fluorescence imaging plate reader (FDSS3000, Hamamatsu Photonics K.K.). Fluo-8 fluorescence was measured with excitation at 490 nm and emission at 520 nm. The calcium-dependent fluorescence intensity was calculated by subtracting basal intensity (average intensity for 30 sec before agonist stimulation) from peak intensity for 60 sec after PrRP-stimulation, and then IC50 values were determined by nonlinear curve-fitting program, GraphPad Prism 5.

Series [2] deals with T1, human GPR10. The experiment in a line: Inhibitory activity on binding of [3H]-PrRP to GPR10 (HEK 293 cell membrane fraction). The note with it: [3H]-PrRP 1 nM, human GPR10-expressing HEK 293 cell membrane fraction; Ki from IC50 by Cheng-Prussoff formula. The method, boiled down: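 Competition with [3H]-PrRP (1 nM final) for membranes from human GPR10-expressing HEK293 cells, 90 min at room temperature in HEPES/EDTA buffer pH 7.4; filtration and scintillation counting.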

T1 sequence (P49683 whole entry): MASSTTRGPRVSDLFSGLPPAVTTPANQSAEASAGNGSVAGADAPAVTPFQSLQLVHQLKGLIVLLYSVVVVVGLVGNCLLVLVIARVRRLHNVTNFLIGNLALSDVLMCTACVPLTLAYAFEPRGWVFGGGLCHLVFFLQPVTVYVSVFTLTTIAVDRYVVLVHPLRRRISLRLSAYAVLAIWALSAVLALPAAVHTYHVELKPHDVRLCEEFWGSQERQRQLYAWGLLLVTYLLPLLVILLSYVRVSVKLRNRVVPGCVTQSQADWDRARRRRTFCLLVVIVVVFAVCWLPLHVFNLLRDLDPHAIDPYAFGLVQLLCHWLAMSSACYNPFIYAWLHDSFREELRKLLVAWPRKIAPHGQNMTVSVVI

Compound `CC[C@@H](Nc1nc2c(c(=O)n1OC)CN(C(=O)c1ccc(Cl)cc1)CC2)c1ccc(Cl)cc1.Cl` displayed a melting point of 127 to 129.5 °C.
Turning to `CN(C)n1c(NCc2ccc(C(F)(F)F)c(F)c2)nc2c(c1=O)CN(C(=O)c1ccc(Cl)cc1)CC2.Cl`, the melting point is 122 to 124 °C.
The compound `C[C@H](Nc1nc2c(c(=O)n1N(C)C)CN(C(=O)c1ccc(Cl)cc1)CC2)c1ccc(C(F)(F)F)cc1.Cl` [Example 6, 6-(4-chlorobenzoyl)-3-dimethylamino-2-(S)-{1-[4-(trifluoromethyl)phenyl]ethylamino}-5,6,7,8-tetrahydropyrido[4,3-d]pyrimidin-4-(3H)-one hydrochloride] had a melting point of 116 to 118 °C. Moreover, in series [1], the IC50 came out at 187 nM. In series [2], this compound gave an inhibition constant Ki of 17 nM.
The matching figures for `C[C@H](Nc1nc2c(c(=O)n1N(C)C)CN(C(=O)c1ccc(Cl)cc1)CC2)c1ccc(Cl)cc1.Cl` [Example 8, 6-(4-chlorobenzoyl)-2-(S)-[1-(4-chlorophenyl)ethylamino]-3-dimethylamino-5,6,7,8-tetrahydropyrido[4,3-d]pyrimidin-4-(3H)-one hydrochloride]: 121 to 123 °C, 253 nM and 25 nM.
With `CC#CCn1c(N[C@@H](C)c2ccc(C(F)(F)F)cc2)nc2c(c1=O)CN(C(=O)c1ccc(-c3cnco3)cc1)CC2` [Example 2410, 3-(2-butynyl)-6-(4-oxazol-5-ylbenzoyl)-2-[(S)-1-(4-trifluoromethylphenyl)ethylamino]-5,6,7,8-tetrahydro-3H-pyrido[4,3-d]pyrimidin-4-one hydrochloride], the concentration for half-maximal inhibition (IC50) in series [1] came out at 665 nM. Moreover, the Ki in series [2] is 10 nM.
For `CC#CCn1c(N[C@@H](C)c2ccc(C(F)(F)F)cc2)nc2c(c1=O)CN(C(=O)c1cc3ccccn3n1)CC2` [Example 2411, 3-(2-butynyl)-6-(pyrazolo[1,5-a]pyridine-2-carbonyl)-2-[(S)-1-(4-trifluoromethylphenyl)ethylamino]-5,6,7,8-tetrahydro-3H-pyrido[4,3-d]pyrimidin-4-one hydrochloride] the same measures were 776 nM and 20 nM.
The matching figures for `CC#CCn1c(N[C@@H](C)c2ccc(C(F)(F)F)cc2)nc2c(c1=O)CN(C(=O)c1ccc3c(c1)CCC(=O)N3)CC2` [Example 2412, 3-(2-butynyl)-6-(2-oxo-1,2,3,4-tetrahydro-quinoline-6-carbonyl)-2-[(S)-1-(4-trifluoromethylphenyl)ethylamino]-5,6,7,8-tetrahydro-3H-pyrido[4,3-d]pyrimidin-4-one hydrochloride]: 259 nM and 8 nM.
The matching figures for `CC#CCn1c(N[C@@H](C)c2ccc(C(F)(F)F)cc2)nc2c(c1=O)CN(C(=O)c1ccc3cccnc3c1)CC2` [Example 2417, 3-(2-butynyl)-6-(quinoline-7-carbonyl)-2-[(S)-1-(4-trifluoromethylphenyl)ethylamino]-5,6,7,8-tetrahydro-3H-pyrido[4,3-d]pyrimidin-4-one dihydrochloride]: 780 nM and 17 nM.
Take `COc1ccc(C(=O)N2CCc3nc(N[C@@H](C)c4ccc(C(F)(F)F)cc4)n(OC)c(=O)c3C2)c(OC)n1` [Example 2419, 6-(2,6-dimethoxypyridine-3-carbonyl)-3-methoxy-2-[(S)-1-(4-trifluoromethylphenyl)ethylamino]-5,6,7,8-tetrahydro-3H-pyrido[4,3-d]pyrimidin-4-one]: in series [1], the IC50 was 228 nM. This compound yielded a Ki in series [2] of 7 nM.
Regarding `CCC(Nc1nc2c(c(=O)n1OC)CN(C(=O)c1ccc(Cl)cc1)CC2)c1ccc(Cl)cc1.Cl` (stereo not shown) [Example 2421, 6-(4-chlorobenzoyl)-2-[1-(4-chlorophenyl)propylamino]-3-methoxy-5,6,7,8-tetrahydro-3H-pyrido[4,3-d]pyrimidin-4-one hydrochloride], the melting point was 118.1 to 123.7 °C. In addition, the IC50 in series [1] stood at 1570 nM. For the same compound, the inhibition constant Ki in series [2] was 44 nM.
On to `COn1c(N[C@@H](C)c2ccc(Cl)cc2)nc2c(c1=O)CN(C(=O)COc1ccc(Cl)cc1)CC2` [Example 2430, 6-[2-(4-chlorophenoxy)acetyl]-2-[(S)-1-(4-chlorophenyl)ethylamino]-3-methoxy-5,6,7,8-tetrahydro-3H-pyrido[4,3-d]pyrimidin-4-one], for which the IC50 in series [1] was found to be 1180 nM. In addition, in series [2], the Ki was determined as 15 nM.
For `C[C@H](Nc1nc2c(c(=O)n1N(C)C)CN(C(=O)COc1ccc(Cl)cc1)CC2)c1ccc(Cl)cc1` [Example 2431, 6-[2-(4-chlorophenoxy)acetyl]-2-[(S)-1-(4-chlorophenyl)ethylamino]-3-dimethylamino-5,6,7,8-tetrahydro-3H-pyrido[4,3-d]pyrimidin-4-one] the same measures were 3600 nM and 207 nM.
The matching figures for `C[C@H](Nc1nc2c(c(=O)n1N1CCOCC1)CN(C(=O)c1ccc(C#N)cc1)CC2)c1ccc(C(F)(F)F)cc1` [Example 2432, 4-{3-morpholin-4-yl-4-oxo-2-[(S)-1-(4-trifluoromethylphenyl)ethylamino]-3,5,7,8-tetrahydro-4H-pyrido[4,3-d]pyrimidine-6-carbonyl}benzonitrile hydrochloride]: 238 nM and 36 nM.
For `C#CCCn1c(N[C@@H](C)c2ccc(C(F)(F)F)cc2)nc2c(c1=O)CN(C(=O)c1ccc(C#N)cc1)CC2` [Example 2433, 4-{3-(3-butynyl)-4-oxo-2-[(S)-1-(4-trifluoromethylphenyl)ethylamino]-3,5,7,8-tetrahydro-4H-pyrido[4,3-d]pyrimidine-6-carbonyl}benzonitrile] the same measures were 62 nM and 5 nM.
In the case of `C#CCCn1c(N[C@@H](C)c2ccc(C(F)(F)F)cc2)nc2c(c1=O)CN(C(=O)c1ccc(C#N)cc1F)CC2` [Example 2435, 4-{3-(3-butynyl)-4-oxo-2-[(S)-1-(4-trifluoromethylphenyl)ethylamino]-3,5,7,8-tetrahydro-4H-pyrido[4,3-d]pyrimidine-6-carbonyl}-3-fluorobenzonitrile], the IC50 in series [1] worked out at 68 nM. Further, the affinity in series [2], expressed as Ki, was 2 nM.
For `COn1c(NC(c2ccc(Cl)cc2)C(C)C)nc2c(c1=O)CN(C(=O)c1ccc(Cl)cc1)CC2` (stereo not shown) [Example 2441, 6-(4-chlorobenzoyl)-2-[1-(4-chlorophenyl)-2-methylpropylamino]-3-methoxy-5,6,7,8-tetrahydro-3H-pyrido[4,3-d]pyrimidin-4-one] the same measures were 4490 nM and 37 nM.
The matching figures for `CC#CCn1c(N[C@@H](C)c2ccc(C(F)(F)F)cc2)nc2c(c1=O)CN(C(=O)c1cnc3ccccc3c1)CC2` [Example 2446, 3-(2-butynyl)-6-(quinoline-3-carbonyl)-2-[(S)-1-(4-trifluoromethylphenyl)ethylamino]-5,6,7,8-tetrahydro-3H-pyrido[4,3-d]pyrimidin-4-one]: 2790 nM and 28 nM.
For `CC#CCn1c(N[C@@H](C)c2ccc(C(F)(F)F)cc2)nc2c(c1=O)CN(C(=O)c1ccc3ccccc3n1)CC2` [Example 2449, 3-(2-butynyl)-6-(quinoline-2-carbonyl)-2-[(S)-1-(4-trifluoromethylphenyl)ethylamino]-5,6,7,8-tetrahydro-3H-pyrido[4,3-d]pyrimidin-4-one] the same measures were 3350 nM and 24 nM.
Regarding `COn1c(N[C@@H](C)c2ccc(C(F)(F)F)cc2)nc2c(c1=O)CN(C(=O)c1ccc(C)c(C)c1)CC2` [Example 2452, 6-(3,4-dimethylbenzoyl)-3-methoxy-2-[(S)-1-(4-trifluoromethylphenyl)ethylamino]-5,6,7,8-tetrahydro-3H-pyrido[4,3-d]pyrimidin-4-one], the IC50 in series [1] worked out at 1030 nM. Affinity in series [2] was put at a Ki of 4 nM.
For the compound `C[C@H](Nc1nc2c(c(=O)n1N1CCOCC1)CN(C(=O)c1ccc(C#N)cc1F)CC2)c1ccc(C(F)(F)F)cc1` [Example 2463, 3-fluoro-4-{3-morpholin-4-yl-4-oxo-2-[(S)-1-(4-trifluoromethylphenyl)ethylamino]-3,5,7,8-tetrahydro-4H-pyrido[4,3-d]pyrimidine-6-carbonyl}benzonitrile hydrochloride], the concentration for half-maximal inhibition (IC50) in series [1] amounted to 187 nM. In series [2], this compound came in with an inhibition constant (Ki) of 3 nM.
For `C[C@H](Nc1nc2c(c(=O)n1N(C)C)CN(C(=O)c1c(F)cc(F)cc1F)CC2)c1ccc(C(F)(F)F)cc1` [Example 2484, 3-dimethylamino-6-(2,4,6-trifluorobenzoyl)-2-[(S)-1-(4-trifluoromethylphenyl)ethylamino]-5,6,7,8-tetrahydro-3H-pyrido[4,3-d]pyrimidin-4-one hydrochloride] the same measures were 216 nM and 6 nM.

Values taken from US9206173B2, “Heterocyclic compounds for the treatment of stress-related conditions” (OTSUKA PHARMACEUTICAL CO., LTD., priority 2009, dated 2015).
